One data set has as its system SOCE of Jurkat T cells. In words: SOCE inhibition in thapsigargin-treated Jurkat cells (Indo-1 cytosolic calcium). It counts as cell-based. To be noted: for Ki: SOCE, compound added 30 s before reintroduction of calcium; for concentration below which only SOCE is inhibited (no effect on SERCA and IP3R): selectivity versus SERCA and IP3R. How it is done: The Jurkat T lymphocyte line was mainly used for characterizing the effect of the molecules on SOCE. The Indo-1 ratiometric probe was used to visualize cytosolic calcium variations. For this, the cells in culture were centrifuged and then resuspended and incubated in PBS (Phosphate Buffered Saline) medium supplemented with 1 mg/ml of albumin and 4 μM of Indo-1-AM for 45 mim at ambient temperature and in the dark.
The SOCE phenomenon was evaluated conventionally. Jurkat cells were placed in calcium-free HBS medium and stimulated with 1 μM of thapsigargin (TG, arrow in FIG. 2A) for 600 s in order to allow calcium release from the ER and SOCC channel opening(=CRAC). The addition of 1 mM of CaCl2 to the medium allows massive calcium ion entry through the SOCCs and an increase in the concentration of cytosolic calcium ([Ca^2+]cyt).
The dose-response curves were established after addition of 2-APB or of an analog thereof 30 seconds before the reintroduction of calcium.

The next data set relates to Orai1-SOCE in leukocytes. The note with it: cited from earlier work.
The next data set deals with T1, IP3R (Mus musculus, UniProt P11881).
T1 construct: expressed in transfected cells; host or cells: L15 cell line, permeabilized with saponin
In words: IP3-dependent 45Ca2+ release in permeabilized L15 cells. It counts as biochemical. How it is done:
(§1) To test the selectivity of certain molecules on SOCE compared to IP3R and SERCA, the L15 line stably expressing type 1 IP3R was used. Briefly, the cells were permeabilized with saponin and incubated in the presence of ^45Ca^2+ in a medium containing ATP allowing SERCA activity and Ca' ion entry into the ER. The addition of TG makes it possible to induce release from the ER and therefore to measure the amount of Ca^2+ ions that have left the ER, which is itself directly linked to the SERCA activity. The addition of IP3 allows direct measurement of the amount of Ca' ions leaving the ER by IP3R opening.
(§2) The ^45Ca^2+ loading and IP3-dependent release measurements were carried out on permeabilized cells under one-way conditions.

In the next data set the test system is SERCA. In words: 45Ca2+ loading (SERCA activity) in permeabilized L15 cells. It counts as biochemical. The note with it: for Ki: permeabilized cells. How it is done:
as §1, §2

Data set [1] concerns Mn2+ influx via the SOCCs. In words: Mn2+ quenching of indo-1 in TG-treated Jurkat cells. It counts as cell-based. The note with it: 1 μM. How it is done:
In order to determine whether compound P11 has an action on SOCE and not on calcium efflux mechanisms, a quenching experiment with Mn^2+ was carried out by means of the indo-1 molecule. The Mn^2+ ions enter the cells via the SOCCs, but cannot be pumped into the extracellular membrane by the plasma membrane calcium-dependent ATPases (plasma membrane Ca^2+ ATPases, or PMCA) or the sodium/calcium exchanger (Na^+/Ca^2+ exchanger, or NCX) or sent back into the lumen of the ER by the sarcoplasmic-endoplasmic reticulum Ca^2+ ATPases (or SERCAs). Once in the cell, Mn^2+ binds to indo-1 and quenches its fluorescence measured at 430 nm. An increase in the amplitude of the Mn^2+ influx is therefore associated with an increase in the indo-1 quenching rate, and vice versa.
After 10 minutes of treatment with TG in order to open the SOCCs, 100 μM of MnCl2 were added. A degree of quenching of −0.89±0.05% Fo/s was observed (FIG. 3A). In the presence of increasing concentrations of P11 added 30 seconds before the addition of Mn^2+ ions, the degree of quenching decreased and reached a blocking of approximately 90% at 1 μM (−0.09±0.01, FIG. 3A).

Data set [2] concerns PHA-stimulated Jurkat cells. The data set is described as follows: IL-2 synthesis by PHA-stimulated Jurkat cells (Elisa). It counts as cell-based. The procedure: In order to measure the interleukin-2 (IL-2) synthesis in 24 h after stimulation with 10 μg/ml of phytohemagglutinin (PHA) in the presence or absence of certain molecules, the Jurkat cells are centrifuged and the supernatant containing the IL-2 is collected. The 11-2 concentration is measured by Elisa (R&D systems kit).
The concentration of neosynthesized IL-2 was measured in the culture medium of phytohemagglutinin (PHA)-stimulated Jurkat cells after 24 h, in the presence of increasing concentrations of compound P11. […] Conversely, stimulation with PHA allows the detection of approximately 100 pg/ml of IL-2 (103 ±4 pg/ml, FIG. 5A). The addition of increasing concentrations of P11 at the same time as the stimulation by PHA leads to a gradual decrease in IL-2 synthesis to 26±6 pg/ml for 1 μM of P11 (-74%, FIG. 5B).

Data set [3] relates to SOCE in MDA-MB231 cells (hormone-independent breast cancer cells). In words: SOCE inhibition in MDA-MB231 cells. The note with it: FIG. 3B. In kind it is cell-based. How it is done:
(§3) The Jurkat T lymphocyte line was mainly used for characterizing the effect of the molecules on SOCE. The Indo-1 ratiometric probe was used to visualize cytosolic calcium variations. For this, the cells in culture were centrifuged and then resuspended and incubated in PBS (Phosphate Buffered Saline) medium supplemented with 1 mg/ml of albumin and 4 μM of Indo-1-AM for 45 mim at ambient temperature and in the dark. The cells were then again centrifuged and resuspended in the HBS (Hepes-Buffered Saline) recording medium having the composition (in mM): 135 mM NaCl, 5.9 mM KCl, 1.2 mM MgCl2, 11.6 mM Hepes, 11.5 mM glucose, pH adjusted to 7.3 with NaOH. 0.5 to 1 million cells are then placed in the cuvette of a Varian Cary Eclipse spectrofluorimeter and the Indo-1 probe is excited at 360 nm, with emission of fluorescence at 405 and 480 nm. The ratio of fluorescence at 405 and 480 nm is directly proportional to the [Ca^2+]cyt.
(§4) The lines of monocyte origin U937, B lymphocyte origin (DG75) and breast cancer origin (MDA-MB231) were also used with the same protocol.

Data set [4] has as its system SOCE in U937 cells (monocytes). The data set is described as follows: SOCE inhibition in U937 cells. In kind it is cell-based. The note with it: FIG. 3B. The procedure:
as §3, §4

In data set [5] the test system is caspase-3 activity of Jurkat cells. In words: Caspase-3 activity in Jurkat cells (Ac-DEVD-AFC substrate). It counts as cell-based. The procedure: The caspase-3 activity is measured with a fluorescent kit using the Ac-DEVD-AFC substrate. The Jurkat cells are incubated for 24 h with PHA in the presence or absence of certain molecules. The cells are then lyzed with RIPA medium, and the amounts of proteins are then measured with a commercial kit (Biorad). The cell lysates are then diluted in the following reaction medium: 200 mM Hepes, pH 7.4, 1 mM EDTA, 20% sucrose and 20 mM dithiothreitol, then incubated with 20 μM of the fluorogenic substrate for 45 min […] at 37° C. The appearance of the fluorescent AFC product is measured by spectrofluorimetry (excitation at 405 nm, emission at 505 nm).
(§5) The caspase-3 activity was then evaluated by means of an Ac-DEVD-AFC fluorogenic substrate, and apoptosis was evaluated by means of a TUNEL assay.

Data set [6] deals with PHA-stimulated Jurkat cells. The data set is described as follows: TUNEL assay of DNA fragmentation in PHA-stimulated Jurkat cells. In kind it is cell-based. The note with it: concentrations greater than 10 nM. How it is done:
The Roche TUNEL kit was used to observe the nuclear DNA fragmentation and therefore cell apoptosis.
as §5

Data set [7] has as its system SOCE in DG75 cells (B lymphocytes). In words: SOCE inhibition in DG75 cells. In kind it is cell-based. How it is done: as §3, §4
The subject of the next data set is Jurkat cells. The data set is described as follows: Cell death of Jurkat cells. It counts as cell-based.
Where [8] appears, read: PHA, increasing amounts of P11, FIG. 5C.

T1 sequence (P11881 whole entry): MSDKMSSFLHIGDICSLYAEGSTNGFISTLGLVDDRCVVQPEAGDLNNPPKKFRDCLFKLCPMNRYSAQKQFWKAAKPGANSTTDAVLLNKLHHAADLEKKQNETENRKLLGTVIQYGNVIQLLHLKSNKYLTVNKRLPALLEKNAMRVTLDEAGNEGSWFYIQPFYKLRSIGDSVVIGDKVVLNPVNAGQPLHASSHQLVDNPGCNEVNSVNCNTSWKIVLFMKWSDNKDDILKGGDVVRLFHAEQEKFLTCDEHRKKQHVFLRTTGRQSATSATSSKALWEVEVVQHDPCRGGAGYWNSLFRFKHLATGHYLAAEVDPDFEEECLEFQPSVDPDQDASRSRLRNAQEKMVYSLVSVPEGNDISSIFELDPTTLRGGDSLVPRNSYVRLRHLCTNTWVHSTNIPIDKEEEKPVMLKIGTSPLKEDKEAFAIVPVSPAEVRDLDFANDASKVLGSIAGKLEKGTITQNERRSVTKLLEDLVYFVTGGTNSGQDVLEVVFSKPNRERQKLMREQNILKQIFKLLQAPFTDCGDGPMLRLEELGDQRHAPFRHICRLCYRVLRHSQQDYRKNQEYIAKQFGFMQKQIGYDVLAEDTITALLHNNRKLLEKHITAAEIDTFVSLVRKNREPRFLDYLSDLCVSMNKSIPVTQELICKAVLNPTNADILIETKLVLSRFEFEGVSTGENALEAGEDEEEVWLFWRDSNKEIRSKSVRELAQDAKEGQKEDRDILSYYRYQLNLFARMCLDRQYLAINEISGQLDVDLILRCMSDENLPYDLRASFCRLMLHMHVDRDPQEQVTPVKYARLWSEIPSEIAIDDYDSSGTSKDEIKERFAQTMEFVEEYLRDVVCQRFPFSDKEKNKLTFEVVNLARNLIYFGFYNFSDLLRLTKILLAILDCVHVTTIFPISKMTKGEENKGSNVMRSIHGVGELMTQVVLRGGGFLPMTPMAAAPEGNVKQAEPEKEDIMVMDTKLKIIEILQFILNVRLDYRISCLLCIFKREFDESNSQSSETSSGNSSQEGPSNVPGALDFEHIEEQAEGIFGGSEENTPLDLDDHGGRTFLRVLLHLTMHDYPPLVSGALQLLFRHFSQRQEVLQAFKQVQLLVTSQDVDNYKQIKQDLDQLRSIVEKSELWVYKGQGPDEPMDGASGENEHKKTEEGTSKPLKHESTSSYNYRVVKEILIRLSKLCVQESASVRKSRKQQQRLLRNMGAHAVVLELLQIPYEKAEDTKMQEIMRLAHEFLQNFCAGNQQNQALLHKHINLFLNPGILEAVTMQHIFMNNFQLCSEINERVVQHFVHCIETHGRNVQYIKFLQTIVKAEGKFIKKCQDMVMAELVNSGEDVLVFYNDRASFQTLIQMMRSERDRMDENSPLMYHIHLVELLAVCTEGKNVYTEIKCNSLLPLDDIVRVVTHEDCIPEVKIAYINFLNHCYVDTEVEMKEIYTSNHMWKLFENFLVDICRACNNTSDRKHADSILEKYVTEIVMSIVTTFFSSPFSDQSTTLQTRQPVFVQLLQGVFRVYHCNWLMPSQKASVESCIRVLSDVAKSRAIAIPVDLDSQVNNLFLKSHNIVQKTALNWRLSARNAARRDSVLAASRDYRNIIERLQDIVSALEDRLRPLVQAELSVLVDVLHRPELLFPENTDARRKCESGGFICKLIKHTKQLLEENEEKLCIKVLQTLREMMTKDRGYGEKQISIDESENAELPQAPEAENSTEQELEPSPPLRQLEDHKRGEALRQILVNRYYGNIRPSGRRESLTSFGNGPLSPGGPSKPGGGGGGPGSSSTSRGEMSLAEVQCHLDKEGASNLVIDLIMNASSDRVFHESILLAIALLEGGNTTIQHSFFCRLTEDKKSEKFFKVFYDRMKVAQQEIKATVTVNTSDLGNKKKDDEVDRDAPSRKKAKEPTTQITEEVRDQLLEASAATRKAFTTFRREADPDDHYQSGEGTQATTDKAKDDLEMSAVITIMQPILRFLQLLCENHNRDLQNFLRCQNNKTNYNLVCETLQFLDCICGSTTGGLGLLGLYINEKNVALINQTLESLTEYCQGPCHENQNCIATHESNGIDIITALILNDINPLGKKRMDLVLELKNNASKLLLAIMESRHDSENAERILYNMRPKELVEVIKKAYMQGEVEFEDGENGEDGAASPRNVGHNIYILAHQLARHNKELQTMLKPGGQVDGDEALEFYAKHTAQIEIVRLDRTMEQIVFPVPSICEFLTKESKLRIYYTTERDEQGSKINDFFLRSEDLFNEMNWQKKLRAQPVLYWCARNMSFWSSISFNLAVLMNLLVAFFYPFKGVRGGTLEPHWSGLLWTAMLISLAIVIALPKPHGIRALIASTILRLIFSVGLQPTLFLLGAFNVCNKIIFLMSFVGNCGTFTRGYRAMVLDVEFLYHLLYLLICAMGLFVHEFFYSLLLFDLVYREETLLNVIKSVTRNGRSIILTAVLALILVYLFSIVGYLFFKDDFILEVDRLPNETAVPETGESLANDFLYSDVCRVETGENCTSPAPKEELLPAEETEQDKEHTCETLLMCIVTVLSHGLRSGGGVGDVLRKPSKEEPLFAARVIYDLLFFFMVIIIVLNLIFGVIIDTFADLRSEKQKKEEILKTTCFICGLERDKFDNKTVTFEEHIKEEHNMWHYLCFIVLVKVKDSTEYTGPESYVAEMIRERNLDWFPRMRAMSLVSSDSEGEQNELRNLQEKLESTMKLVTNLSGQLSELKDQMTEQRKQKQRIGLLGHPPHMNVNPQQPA

Consider `NCCOB(c1ccccc1)c1ccccc1` [Compound 2-APB, 2-Aminoethoxydiphenyl borate, reference compound], for which, in the data set on SOCE of Jurkat T cells (Jurkat cells, 5 μM, FIG. 2A), the “effect on calcium entry at 5 μM” value is “high potentiation of calcium entry”. Besides, the “effect on calcium entry at 50 μM” value in the data set with SOCE of Jurkat T cells (Jurkat cells, 50 μM, FIG. 2A) was “virtually total inhibition”. In the data set on Orai1-SOCE in leukocytes, the “concentration at which Orai1-SOCE is inhibited” value is “greater than 30 μM”.

For `COc1ccc(B(OCCN)c2ccc(OC)cc2)cc1` [Compound P2], the Ki in the data set with SOCE of Jurkat T cells (Jurkat cells) was 3500 ± 650 nM.

For the compound `Cc1ccc(B(OCCN)c2ccc(C)cc2)cc1` [Compound P3], the Ki in the data set on SOCE of Jurkat T cells (Jurkat cells) worked out at 3500 ± 600 nM.

For the compound `COc1cccc(B(OCCN)c2cccc(OC)c2)c1` [Compound P4], in the data set with SOCE of Jurkat T cells (Jurkat cells), the “maximum inhibition of SOCE” value is reported as 80% and the Ki was 75000 ± 21000 nM.

Turning to `Cc1cccc(B(OCCN)c2cccc(C)c2)c1` [Compound P5], the Ki in the data set with SOCE of Jurkat T cells (Jurkat cells) amounted to 2100 ± 600 nM.

Turning to `Cc1ccc(B(OCCN)c2ccc(C)c(C)c2)cc1C` [Compound P7], the Ki with SOCE of Jurkat T cells (Jurkat cells) was 751 ± 97 nM.

Regarding `CC(C)(C)c1ccc(B(OCCN)c2ccc(C(C)(C)C)cc2)cc1` [Compound P8], the Ki in the data set on SOCE of Jurkat T cells (Jurkat cells) is 350 ± 40 nM.

For the compound `CC(C)(C)c1ccc(B(OCCN)c2ccc(C(C)(C)C)cc2)cc1` [Compound P9], the “inhibition of IP3R activity (in words)” value against IP3R (FIG. 4) is listed as “did not significantly inhibit”. In addition, the results for the Ki with SOCE of Jurkat T cells (Jurkat cells) and with SERCA were 641 ± 103 nM and 6000 ± 300 nM, respectively. The “concentration below which only SOCE is inhibited (no effect on SERCA and IP3R)” value with SOCE of Jurkat T cells is “Below 3 μM”.

With `NCCOB(c1ccc(-c2ccccc2)cc1)c1ccc(-c2ccccc2)cc1` [Compound P11, 2-(dibiphenyl-4-ylboryloxy)ethamine], in data set [1], the “blocking of Mn2+ quenching” value was “approximately 90%”. Further, in data set [1] (added 30 s before 100 μM MnCl2, after 10 min TG), the “degree of indo-1 quenching by Mn2+” value was −0.09±0.01 % Fo/s. The “IL-2 concentration in culture medium” value in data set [2] (1 μM with 10 μg/ml PHA, 24 h) came out at 26 ± 6 pg/mL. Also, the “change in IL-2 synthesis” value in data set [2] (1 μM with PHA, 24 h) is reported as -74%. Also, in data set [2] (setting [8]), the “IL-2 synthesized by the remaining living cells” value is 39.2 ± 8.6 pg/mL. Also, the “decrease of IL-2 synthesis capacity of remaining living cells” value in data set [2] (setting [8]) is “approximately 63%”. Besides, at 100 µM the inhibition at IP3R (100 μM) was 29 ± 9%. Moreover, the Ki was 50 ± 5 nM in data set [3]; 75 ± 21 nM in the data set with SOCE of Jurkat T cells (Jurkat cells); 40 ± 5 nM in [4]; 7400 nM in the data set on SERCA; 32 ± 2 nM in data set [7] (DG75 cells (B lymphocytes), FIG. 3B). Further, the “concentration below which only SOCE is inhibited (no effect on SERCA and IP3R)” value in the data set on SOCE of Jurkat T cells is “less than 1 μM”. Besides, the caspase-3 activity in data set [5] (1 μM with PHA, 24 h) was 3332±113 AU. Moreover, the “increase of caspase-3 activity (factor)” value in data set [5] (with PHA, from 10 nM, maximum effect) was found to be 3. Besides, the “caspase-3 activity, compound alone” value in data set [5] (without PHA, up to 1 μM) is “does not induce an increase in caspase-3 activity”. The “cells containing fragmented DNA” value in data set [6] is 17.9±1.2%. In addition, in [6], the “fold increase in number of cells containing fragmented DNA” value amounted to 4.5 fold. For the same compound, the “ratio Ki SERCA versus Ki SOCE” value in the data set on SERCA (SERCA 7.4 μM vs SOCE 75 nM) was determined as 100 times. The “inhibition of SERCA” value with SERCA (concentration greater than 30 μM) is recorded as 89%. For the same compound, in data set [7] (FIG. 3B (other cell types: DG75, U937, MDA-MB231)), the “concentration at which total inhibition of SOCE is achieved” value was found to be 100 nM. For the same compound, in the data set on Jurkat cells (1 μM combined with PHA), the “percentage of dead cells” value is listed as 33.2±1.3%. Moreover, in the data set on Jurkat cells (without PHA), the “toxic effect on the cells, compound alone” value is given as “did not exhibit any toxic effect”.

In the case of `NCCOB(c1ccc(Cl)cc1)c1ccc(Cl)cc1` [Compound P13], in the data set on SOCE of Jurkat T cells (Jurkat cells), the Ki was 1840 ± 100 nM.

As for `NCCOB(c1ccc(F)cc1)c1ccc(F)cc1` [Compound P14], in the data set on SOCE of Jurkat T cells (Jurkat cells), the Ki was 5400 ± 300 nM.

As for `Cc1ccc(B(OCCN)c2ccc(C)c(Cl)c2)cc1Cl` [Compound P15], the Ki in the data set on SOCE of Jurkat T cells (Jurkat cells) worked out at 294 ± 74 nM.

For orientation: Ki means the equilibrium dissociation constant of an inhibitor or competing ligand from its target. One may read the inhibition as the share of the control response that was lost under treatment. High values mean a response far below the control, low ones a response near the control.

The values above are taken from patent US20220362267A1, “CAPACITATIVE CALCIUM ENTRY INHIBITORS” (UNIVERSITÉ PARIS-SACLAY, priority 2019, published 2022).
